PMC11574021, “CEP192 localises mitotic Aurora-A activity by priming its interaction with TPX2” (The EMBO Journal, 2024)

Experiments:
[1] = system: Aurora-A-pT288 in U251 cells; assay: Immunofluorescence, Aurora-A-pT288 spindle pole signal intensity, U251; type: cell-based, Homo sapiens; settings: U251, siRNA 48 h or Aurora-A inhibitor 30 min (250 nM)
Experimental: (§1) Drugs were resuspended in DMSO to the stock concentrations indicated in square brackets.
(§2) For immunofluorescence, 1 × 10^5 cells were seeded in six-well plates and simultaneously transfected with 60 pmol siRNA duplex and 3 µl transfection reagent diluted in 200 µl Opti-MEM serum-free medium. Growth medium was added to a final volume of 2 ml. For western blotting, 1 × 10^6 cells were seeded in 10 cm dishes and transfected with 300 pmol siRNA duplex and 15 µl transfection reagent diluted in 1000 µl Opti-MEM. Growth medium was added to a final volume of 10 ml. Cells were incubated with siRNA for 48 h prior to fixation or harvesting. As a negative control (siControl) Silencer select negative control No.1 siRNA was transfected as above. For TACC3 depletion, where two siRNA duplexes were used, 40 pmol of each was transfected per well.
For siRNA depletion, 1 × 10^5 cells were seeded in six-well plates and transfected as described above for 48 h prior to fixation. For all other experiments, 2.5 × 10^5 cells were seeded in six-well plates and grown for 24 h before fixation. […] Cells in Fig. EV4A were fixed using 4% (wt/v) paraformaldehyde (PFA) in PBS for 12 min, followed by 10 min quenching in 50 mM NH4Cl in PBS and 5 min of permeabilization with 0.2% (v/v) Triton X-100 in PBS, all at room temperature. For centriole staining in Fig. EV4E, cells were fixed in pre-chilled methanol for 10 min at −20 °C, incubated in PBS for 10 min and then 5 min in 0.5% Triton-X-100, 0.5% Tween, 0.05% SDS in PBS (v/v). […]
(§3) Here “area” refers to the area of DAPI-stained DNA, determined by thresholding (default mode) the region of interest. […] The diameter calculated, therefore, refers to that of a circle with equivalent area to the DAPI signal measured previously. The area of the nuclear DAPI signal (Appendix Fig. S6I) was determined by thresholding (as above). […] All fluorescence intensity and area measurements were obtained from maximum intensity z-projections. […]

Aurora-A in U251 cells = assay: Immunofluorescence, Aurora-A spindle pole signal intensity, U251; type: cell-based, Homo sapiens; settings: U251, siRNA 48 h or Aurora-A inhibitor 30 min (250 nM)
Experimental: as §1, §2
For siRNA depletion, 1 × 10^5 cells were seeded in six-well plates and transfected as described above for 48 h prior to fixation. For all other experiments, 2.5 × 10^5 cells were seeded in six-well plates and grown for 24 h before fixation. […] Cells in Fig. EV4A were fixed using 4% (wt/v) paraformaldehyde (PFA) in PBS for 12 min, followed by 10 min quenching in 50 mM NH4Cl in PBS and 5 min of permeabilization with 0.2% (v/v) Triton X-100 in PBS, all at room temperature. For centriole staining in Fig. EV4E, cells were fixed in pre-chilled methanol for 10 min at −20 °C, incubated in PBS for 10 min and then 5 min in 0.5% Triton-X-100, 0.5% Tween, 0.05% SDS in PBS (v/v). To observe centromere and kinetochore staining in Fig. 7C and Appendix Fig. S8A, cells were fixed with PTEMF buffer (20 mM PIPES pH 6.8, 0.2% (v/v) Triton X-100, 10 mM EGTA, 1 mM MgCl2, 4% PFA (wt/v) in PBS) for 12 min at room temperature. For all other experiments, cells were fixed in pre-chilled methanol for 5 min at −20 °C. Following fixation, coverslips were blocked in 2% BSA (wt/v), 0.1% Tween (v/v) in PBS, this and all antibody incubation steps were carried out for 1 h at room temperature, unless otherwise stated. Primary and secondary antibody (Life technologies) dilutions were made in 0.1% Tween, PBS, with secondary staining being conducted in the dark. Coverslips were gently washed with three x 2 ml 0.2% Tween, PBS between antibody incubation steps. […]
as §3

5′-CGGUAGUGAUAAAAGCUCAtt-3′ [siTPX2]
centrosomal/spindle pole Aurora-A-pT288 signal [1]: diminished the intensity of pT288 signal
spindle (pole)-associated Aurora-A level (Aurora-A in U251 cells; listed as TPX2 depletion): complete loss of Aurora-A from mitotic spindles
spindle (pole)-associated Aurora-A level (Aurora-A in U251 cells; listed as depletion of TPX2): diminished levels of spindle pole-associated Aurora-A

5′-CAAACAACUUGGAAAUCGAtt-3′ [siCEP192]
centrosomal/spindle pole Aurora-A-pT288 signal [1]: diminished the intensity of pT288 signal
spindle (pole)-associated Aurora-A level (Aurora-A in U251 cells): significant drop

COc1cc(Nc2ncc3c(n2)-c2ccc(Cl)cc2C(c2c(F)cccc2OC)=NC3)ccc1C(=O)O [Alisertib]
centrosomal/spindle pole Aurora-A-pT288 signal [1]: obliterated
spindle (pole)-associated Aurora-A level (Aurora-A in U251 cells; listed as Aurora-A inhibition): significant drop
